Reference: patent US11826400B2, “Neuregulin based compositions and uses thereof for preventing, treating or delaying the myocardial ischemia-reperfusion injury” (ZENSUN (SHANGHAI) SCIENCE & TECHNOLOGY LIMITED, priority 2010, dated 2023)

System: myocardial ischemia reperfusion in rat
Assay: Therapeutic effect on myocardial ischemia reperfusion in rat (coronary ligation 45 min, reperfusion 2 h, TCC staining of heart sections)
Assay type: in vivo, Wistar rats
Details: Group D
Experimental: Wistar rats (male, 200˜240 g) were divided into groups and administered with different dosages of rhNRG-1, placebo or rhThymosin-β4 (as shown in Table 1) after anaesthetized with intra-abdominal injection of 20% urethane (5 ml/kg). Thirty minutes after the drug started to be given to the rats, the anterior descending limb of the left coronary artery was ligated for 45 minutes to cause partial myocardium turned white obviously in the ligation area. After that the ligation thread was loosen to keep coronary blood flow for 2 hours and then take out the heart rapidly and wash vascular fat away with normal saline, and then freeze the heart in −30° C. for one hour.
Cut the heart parallelly from apex to base along coronary sulcus to myocardium sections with the thickness of 1 mm, and then put them into TCC dye liquor for 20 min in 37° C. in a shaker. After staining extra dye was washed immediately with water, and then the sections were put into 4% formalin for one hour. Photo and analyze the total size and the infarction size of were analyzed with Image Analysis Software. Infarction size ratio equals to the ratio of the infarction size and the total size of the myocardium section.

“rhThymosin-β4: produced by Northland (Beijing) Bio-Technology Co Ltd, batch number: 20050728; comparator drug of Group D (SDKPDMAEIEKFDKSKLKKTETQEKNPLPSKETIEQEKQAGES; Thymosin beta-4; UniProt P62328 2-44, looked up)” was tested, and the “Infarction size compared with other groups” value (2.5 mg/kg single intraperitoneal injection) was “no significant difference with other groups” and the “The myocardium infarction size ratio” value (2.5 mg/kg single intraperitoneal injection 30 min before ligation, infarction size / total size of myocardium section, mean ± spread, 2.5 mg/kg) was 0.151±0.030.
